Test results as given in patent publication US20220098203A1 (priority 2018, published 2022).

What was measured:
[1] = system: SAM in HCT116 MTAP-deleted cells; assay: Cellular assay of target engagement (SAM), LC-MS/MS; type: cell-based, human; details: Homo sapiens, HCT-116, Table 5a, 72 h, read-out: Cell 72 h SAM Inhibition (MTAP −/−)
Experimental: Measurement of MAT2A activity in cells was made by direct quantitation of the abundance of the product of its enzymatic activity, SAM. Cancer cells were treated with candidate MAT2A inhibitors for a suitable incubation period, and the cells were then lysed using a reagent which quenched any further enzyme activity. Soluble metabolites including SAM were collected and SAM itself was directly measured from the lysate using quantitative LC-MS/MS.
A typical assay was performed using an HCT116 human colon carcinoma cell line which was genetically engineered to delete the MTAP gene (commercially available from Horizon Discovery). […] Cells were plated in 96-well dishes at appropriate cell density. Following 24 hours, cells were then treated with the candidate MAT2A inhibitor. […] Compound was then transferred to a working stock plate in cell culture media by adding 5 μL of compound in DMSO to 495 μL of cell culture media. This working stock was then added to cells via a further 5-fold dilution, by adding 25 μL of working stock to 100 μL of cells in culture media. Following compound addition, cells were incubated at 37° C./5% CO2 for 72 hrs.
To quantitate SAM levels following compound treatment, cells were gently washed once in ammonium carbonate buffer (75 mM at pH 7.4), placed on dry ice, and lysed with metabolite extraction buffer (80% cold methanol and 20% water (v/v) with acetic acid at 1M final concentration with 200 ng/mL deuterated d3-SAM as internal control). Following centrifugation at 4° C. at 3,200 rpm for 30 minutes, the supernatant was collected and stored at −80° C. until analysis by Liquid Chromatography with tandem Mass Spectrometry (LC-MS/MS). LC-MS/MS analysis was performed using an API6500 Mass Spectrometer (Sciex, Framingham, Mass., USA) operating in positive ion spray mode and equipped with a Waters UPLC Acquity (Waters, Milford, Mass., USA) BEH Amide column.

MAT2A homodimer = target: T1, MAT2A homodimer (Homo sapiens, UniProt P31153); assay: MAT2A biochemical assay (liberated phosphate, PiColorLock Gold); details: Table 5a; MAT2A biochemical assay; read-out: Enzyme Inhibition
T1 construct: inferred from the Ni sepharose purification and imidazole elution; made in house; host or cells: SF9 insect cells, recombinant baculovirus (Bac to Bac, pFASTBAC1)
In short: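 Baculovirus/Sf9-expressed, Ni-purified MAT2A homodimer preincubated with compound 60 min at 25 °C, then reacted 60 min at 25 °C with substrate mix of 500 μM ATP and 400 μM L-methionine, pH 7.0 (mix, not final levels). Phosphate released with SAM measured by PiColorLock Gold against phosphate standard curve.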

HCT116 MTAP+/+ = assay: Inhibition of cellular proliferation (Cell Titer Glo), HCT116 MTAP+/+; type: cell-based; details: Homo sapiens, HCT-116, 96 h, Table 5a, 4 days, read-out: 4 Day Relative Growth Inhibition (MTAP +/+)
Experimental: (§1) Test compound impact on cancer cell growth was assessed by treating cancer cells with compound for 4 days and then measuring proliferation using an ATP-based cell proliferation readout (Cell Titer Glo, Promega Corporation).
(§2) In a typical assay an isogenic pair of HCT116 human colon carcinoma cell lines which vary only in MTAP deletion status (HCT116 MTAP+/+ and HCT116 MTAP−/−) were plated in 96-well dishes at appropriate cell density. Following 24 hours, cells were then treated with the candidate MAT2A inhibitor. […] Compound was then transferred to a working stock plate in cell culture media by adding 5 μL of compound in DMSO to 495 μL of cell culture media. This working stock was then added to cells via a further 5-fold dilution, by adding 25 μL of working stock to 100 μL of cells in culture media. Following compound addition, cells were incubated at 37° C./5% CO2 for 4 days.
(§3) The plate was then covered with aluminum foil and shaken for 15 minutes to ensure complete mixing and full cell lysis. […] This luminescence measure was converted to a proliferation index by subtracting from each data point the ATP luminescence signal measured from a bank (no cells) well and dividing by the ATP luminescence signal measured in 0.2% DMSO control well adjusted for signal in blank well.

HCT116 MTAP-/- = assay: Inhibition of cellular proliferation (Cell Titer Glo), HCT116 MTAP-/-; type: cell-based, human; details: Homo sapiens, HCT-116, 96 h, Table 5a, 4 days, read-out: 4 Day Relative Growth Inhibition (MTAP −/−)
Experimental: as §1, §2, §3

T1 sequence (P31153 whole entry): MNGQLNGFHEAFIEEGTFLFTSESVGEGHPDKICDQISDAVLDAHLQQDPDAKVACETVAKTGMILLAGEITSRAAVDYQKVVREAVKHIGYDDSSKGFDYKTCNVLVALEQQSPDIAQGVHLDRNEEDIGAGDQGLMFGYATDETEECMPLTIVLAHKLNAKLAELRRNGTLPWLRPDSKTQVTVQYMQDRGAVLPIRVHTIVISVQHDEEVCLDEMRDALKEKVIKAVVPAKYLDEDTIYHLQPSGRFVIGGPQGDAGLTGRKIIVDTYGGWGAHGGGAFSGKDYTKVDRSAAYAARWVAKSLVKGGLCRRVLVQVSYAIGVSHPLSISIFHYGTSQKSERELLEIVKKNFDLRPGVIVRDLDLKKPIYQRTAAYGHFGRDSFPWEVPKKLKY

Row | SMILES | IC50 [1] [nM] | IC50 (MAT2A homodimer) [nM] | IC50 (HCT116 MTAP+/+) [nM] | IC50 (HCT116 MTAP-/-) [nM]
1 | CCOc1ccc2c(n1)N(c1ccc(-c3nnc[nH]3)cc1)C(=O)N(c1ccc(OC)cc1)C2 [Example 155, 1-(4-(4H-1,2,4-triazol-3-yl)phenyl)-7-ethoxy-3-(4-methoxyphenyl)-3,4-dihydropyrido[2,3-d]pyrimidin-2(1H)-one] | < 100 | < 100 | 100 to 1000 | 100 to 1000
2 | COc1ccc(N2Cc3cnc(NCC(F)(F)F)nc3N(c3ccc(CO)cc3)C2=O)cc1 [Example 202, 1-(4-(hydroxymethyl)phenyl)-3-(4-methoxyphenyl)-7-((2,2,2-trifluoroethyl)amino)-3,4-dihydropyrimido[4,5-d]pyrimidin-2(1H)-one] | 100 to 1000 | 100 to 1000 | > 1000 | 100 to 1000
3 | Cn1cc2cc(N3Cc4ccc(OCC(F)F)nc4N(c4ccc5[nH]ncc5c4)C3=O)ccc2n1 [Example 405, 7-(2,2-difluoroethoxy)-1-(1H-indazol-5-yl)-3-(2-methyl-2H-indazol-5-yl)-3,4-dihydropyrido[2,3-d]pyrimidin-2(1H)-one] | < 100 | < 100 | > 1000 | 100 to 1000
4 | CCOc1ccc2c(n1)N(c1ccc(CF)nc1)C(=O)N(c1ccc3nn(C)cc3c1)C2 [Example 282, 7-ethoxy-1-(6-(fluoromethyl)pyridin-3-yl)-3-(2-methyl-2H-indazol-5-yl)-3,4-dihydropyrido[2,3-d]pyrimidin-2(1H)-one] | < 100 | < 100 | > 1000 | < 100
5 | CCOc1cnc2c(n1)N(c1ccc(OC(F)F)cc1)C(=O)N(c1ccc(OC)cc1)C2 [Example 186, 1-(4-(difluoromethoxy)phenyl)-7-ethoxy-3-(4-methoxyphenyl)-3,4-dihydropteridin-2(1H)-one] | 100 to 1000 | < 100 | 100 to 1000 | < 100
6 | Cn1cc2cc(N3Cc4ccc(OCC(F)F)nc4N(c4ccc5nscc5c4)C3=O)ccc2n1 [Example 177, 1-(benzo[c]isothiazol-5-yl)-7-(2,2-difluoroethoxy)-3-(2-methyl-2H-indazol-5-yl)-3,4-dihydropyrido[2,3-d]pyrimidin-2(1H)-one] | < 100 | < 100 | > 1000 | 100 to 1000
7 | [2H]C([2H])([2H])Oc1ccc(N2C(=O)N(c3ccc4nc(C)n(C)c4c3)Cc3cnc(NCC(F)(F)F)nc32)cc1 [Example 402, 3-(1,2-dimethyl-1H-benzo[d]imidazol-6-yl)-1-(4-(methoxy-d3)phenyl)-7-((2,2,2-trifluoroethyl)amino)-3,4-dihydropyrimido[4,5-d]pyrimidin-2(1H)-one] | < 100 | < 100 | 100 to 1000 | < 100
8 | CCOc1cc2c(cn1)CN(c1ccc3nn(C)cc3c1)C(=O)N2c1ccc(OC(F)F)cc1 [Example 187, 1-(4-(difluoromethoxy)phenyl)-7-ethoxy-3-(2-methyl-2H-indazol-5-yl)-3,4-dihydropyrido[4,3-d]pyrimidin-2(1H)-one] | > 1000 | 100 to 1000 | > 1000 | > 1000
9 | Cc1nc2ccc(N3Cc4cnc(NCC(F)(F)F)nc4N(c4ccc(-c5nc[nH]n5)cc4)C3=O)cc2s1 [Example 217, 1-(4-(1H-1,2,4-triazol-3-yl)phenyl)-3-(2-methylbenzo[d]thiazol-6-yl)-7-((2,2,2-trifluoroethyl)amino)-3,4-dihydropyrimido[4,5-d]pyrimidin-2(1H)-one] | < 100 | < 100 | > 1000 | < 100
10 | [2H]C([2H])([2H])Oc1ccc(N2C(=O)N(c3ccc4nn(C)c(OC)c4c3)Cc3ccc(OCC(F)F)nc32)cc1 [Example 104, 7-(2,2-difluoroethoxy)-3-(3-methoxy-2-methyl-2H-indazol-5-yl)-1-(4-(methoxy-d3)phenyl)-3,4-dihydropyrido[2,3-d]pyrimidin-2(1H)-one] | < 100 | < 100 | 100 to 1000 | < 100
11 | Cn1cnc2ccc(N3Cc4ccc(OCC(F)F)nc4N(c4ccc(OC(F)F)cc4)C3=O)cc21 [Example 140, 7-(2,2-difluoroethoxy)-1-(4-(difluoromethoxy)phenyl)-3-(1-methyl-1H-benzo[d]imidazol-6-yl)-3,4-dihydropyrido[2,3-d]pyrimidin-2(1H)-one] | < 100 | < 100 | > 1000 | < 100
12 | COc1ccc(N2Cc3cnc(NCC(F)(F)F)nc3N(c3ccc(CCO)cc3)C2=O)cc1 [Example 206, 1-(4-(2-hydroxyethyl)phenyl)-3-(4-methoxyphenyl)-7-((2,2,2-trifluoroethyl)amino)-3,4-dihydropyrimido[4,5-d]pyrimidin-2(1H)-one] | 100 to 1000 | < 100 | > 1000 | 100 to 1000
13 | [2H]C([2H])([2H])Oc1ccc(N2C(=O)N(c3ccc4nc(OC)n(C)c4c3)Cc3ccc(OCC(F)F)nc32)cc1 [Example 431, 7-(2,2-difluoroethoxy)-3-(2-methoxy-1-methyl-1H-benzo[d]imidazol-6-yl)-1-(4-(methoxy-d3)phenyl)-3,4-dihydropyrido[2,3-d]pyrimidin-2(1H)-one] | < 100 | < 100 | > 1000 | 100 to 1000
14 | Cn1cc2cc(N3Cc4ccc(OCC(F)F)nc4N(c4ccc5c(c4)ncn5C)C3=O)ccc2n1 [Example 403, 7-(2,2-difluoroethoxy)-1-(1-methyl-1H-benzo[d]imidazol-5-yl)-3-(2-methyl-2H-indazol-5-yl)-3,4-dihydropyrido[2,3-d]pyrimidin-2(1H)-one] | < 100 | < 100 | > 1000 | 100 to 1000
15 | Cn1cc2cc(N3Cc4ccc(NCC(F)(F)F)cc4N(c4ccc(OC(F)F)cc4)C3=O)ccc2n1 [Example 288] | 100 to 1000 | < 100 | > 1000 | 100 to 1000
16 | CCOc1ccc2c(n1)N(c1ccc(OC)cc1)C(=O)N(c1ccc3c(c1)N(C)CCO3)C2 [Example 122, 7-ethoxy-1-(4-methoxyphenyl)-3-(4-methyl-3,4-dihydro-2H-benzo[b][1,4]oxazin-6-yl)-3,4-dihydropyrido[2,3-d]pyrimidin-2(1H)-one] | 100 to 1000 | < 100 | > 1000 | 100 to 1000
17 | Cn1cc2cc(N3Cc4ccc(OCC(F)F)nc4N(c4ccc5oc(N)nc5c4)C3=O)ccc2n1 [Example 411, 1-(2-aminobenzo[d]oxazol-5-yl)-7-(2,2-difluoroethoxy)-3-(2-methyl-2H-indazol-5-yl)-3,4-dihydropyrido[2,3-d]pyrimidin-2(1H)-one] | < 100 | < 100 | > 1000 | < 100
18 | [2H]C([2H])([2H])Oc1ccc(N2C(=O)N(c3ccc4nn(CCOC)cc4c3)Cc3ccc(OCC(F)F)nc32)cc1 [Example 125, 7-(2,2-difluoroethoxy)-3-(2-(2-methoxyethyl)-2H-indazol-5-yl)-1-(4-methoxy-d3-phenyl)-3,4-dihydropyrido[2,3-d]pyrimidin-2(1H)-one] | < 100 | < 100 | > 1000 | < 100
19 | COc1ccc(N2C(=O)N(c3ccc4nccnc4c3)Cc3cnc(NCC(F)(F)F)nc32)cc1 [Example 233, 1-(4-methoxyphenyl)-3-(quinoxalin-6-yl)-7-((2,2,2-trifluoroethyl)amino)-3,4-dihydropyrimido[4,5-d]pyrimidin-2(1H)-one] | 100 to 1000 | < 100 | – | 100 to 1000
